# Publication PMC12211128, “Safety, tolerability, pharmacokinetic and pharmacodynamic effects of the muscarinic M1 positive allosteric modulator VU0467319 for Alzheimer’s disease: a single ascending-dose study in healthy participants” (Alzheimer's Research & Therapy, 2025)
# How the values were obtained:
# Type in all cases: in vivo, human
# [1] = tested on: healthy participants; assay: Conner's Continuous Performance Task (CPT); conditions: for CPT Commission Errors / CPT Hit Response Time / CPT Omission Errors / CPT Perseverations: mean (SD)
# Experimental: (§1) The Conner’s Continuous Performance Task (CPT; [32]) tested sustained attention to a target. Participants saw a string of letters appearing one at a time on a computer screen. Participants were asked to press the spacebar whenever the target stimulus (any letter except for the X) appeared. Participants were asked to withhold responding when a X was presented, which is the non-target stimulus. A set of 15 outcome measures derived from the task report were recorded as key variables. These measures include Hit RT, Hit Standard Error, Commission, Omission and Perseveration errors, Sensitivity, Response style, and the Hit standard error across different interstimulus intervals.
# Cognitive data: In this exploratory analysis, each outcome variable of the cognitive data was examined in a mixed model analysis of variance with one between-subjects factor of VU319 dose (0, 60, 120, 240, 400, 600 mg) and a within-subjects factor of testing session (pre-dose vs. post-dost administration). Post-hoc analysis compared each of the VU319 dose cohorts against the placebo group. Because the participants were healthy adults with normal cognitive function, we considered effects between no reductions in function to small improvement (d = 0.0–0.20) to be a positive result. For the food effect study, only the participants who received VU319 were examined due to the disproportionately small placebo group (n = 2). A within-subjects ANOVA including food condition (fasted/fed) and testing session (pre-dose vs. post-dose administration) was performed on each outcome variable.
# as §1, with “(Conners et al., 2000))” for “[32])”
# [2] = tested on: healthy participants; assay: Vital signs
# Experimental: Safety and tolerability were assessed throughout the study via treatment emergent adverse event (TEAE) monitoring, vital signs (blood pressure, pulse rate, respiration rate, oral temperature), physical examinations, 12-lead ECGs, and clinical laboratory parameters including complete blood count (CBC), coagulation, hematology, clinical chemistry assessments, and urinalysis. Safety laboratory tests were drawn at pre-dose and at 5, 24, 36 and 144-hours post-dose for 60–400 mg Cohorts; and at 24, 48, 72 and 144-hours post-dose for the 600 mg and Food Effect Cohort. […] All adverse events (AEs) were assessed by the investigator for severity and relationship to study medication or study procedures.
# All AEs were coded using the Medical Dictionary for Regulatory Activities (MedDRA) version 22.0. All AEs were listed, and the emergence of TEAEs were categorized by body system affected and analyzed to determine whether they were related to treatment. […] Assessment of the grade of toxicity or relation to the study drug for each adverse event was determined by the Investigator. […] Changes in vital signs from pre-dose to 48 h post-dose were placed into 10-time bins and assessed using mixed-measures ANOVA with the time bins as the within-subjects factor and dose as the between-subjects factor. […]
# [3] = tested on: healthy participants; assay: Clinical laboratory parameters; conditions: food effect study, 120 mg; 72 h post-dose, closer to normal by 144 h
# Experimental: Safety and tolerability were assessed throughout the study via treatment emergent adverse event (TEAE) monitoring, vital signs (blood pressure, pulse rate, respiration rate, oral temperature), physical examinations, 12-lead ECGs, and clinical laboratory parameters including complete blood count (CBC), coagulation, hematology, clinical chemistry assessments, and urinalysis. Safety laboratory tests were drawn at pre-dose and at 5, 24, 36 and 144-hours post-dose for 60–400 mg Cohorts; and at 24, 48, 72 and 144-hours post-dose for the 600 mg and Food Effect Cohort. ECG assessments were conducted at pre-dose and at 1, 2, 3, 5, 9, 24, 36 and 144-hours post-dose for 60–400 mg Cohorts; and at 2, 3, 5, 9, 24, 36, 72 and 144-hours post-dose for the 600 mg and Food Effect Cohort. All adverse events (AEs) were assessed by the investigator for severity and relationship to study medication or study procedures.
# [4] = Food effect study 120 mg, Fasting, Post-Drug, n = 9
# [5] = Food effect study 120 mg, Fasting, Pre-Drug, n = 9
# [6] = Food effect study 120 mg, Fed, Post-Drug, n = 9
# [7] = Food effect study 120 mg, Fed, Pre-Drug, n = 9
smiles,measurement,setting,value
Cn1cc2c(-c3cc(F)c(CN4Cc5ncccc5C4=O)c(F)c3)cccc2n1 [VU319],"CPT Hit RT, 600 mg vs placebo, effect size d","[1]; 600 mg, pre-dose to post-dose",1.48
same,"CPT Hit RT, pre- to post-dose change, mean difference vs placebo","[1]; 600 mg, p = 0.012",-28.12
same,CPT Commission Errors,[1]; [4],12.6 (6.62)
same,CPT Hit Response Time,[1]; [4],387.85 (64.33) ms
same,CPT Omission Errors,[1]; [4],4.33 (7.16)
same,CPT Perseverations,[1]; [4],2.56 (6.93)
same,CPT Commission Errors,[1]; [5],11.6 (5.68)
same,CPT Hit Response Time,[1]; [5],395.78 (51.66) ms
same,CPT Omission Errors,[1]; [5],4.56 (10.4)
same,CPT Perseverations,[1]; [5],3.89 (11.7)
same,CPT Commission Errors,[1]; [6],12.3 (6.2)
same,CPT Hit Response Time,[1]; [6],381.1 (71.8) ms
same,CPT Omission Errors,[1]; [6],2 (4.24)
same,CPT Perseverations,[1]; [6],1.78 (2.44)
same,CPT Commission Errors,[1]; [7],11.1 (5.58)
same,CPT Hit Response Time,[1]; [7],381.6 (59.56) ms
same,CPT Omission Errors,[1]; [7],1.22 (1.48)
same,CPT Perseverations,[1]; [7],0.44 (1.01)
same,CPT Commission Errors,"[1]; SAD study, 60 mg, Post-Drug",13.33 (4.37)
same,CPT Hit Response Time,"[1]; SAD study, 60 mg, Post-Drug",407.08 (66.44) ms
same,CPT Omission Errors,"[1]; SAD study, 60 mg, Post-Drug",3.33 (4.55)
same,CPT Perseverations,"[1]; SAD study, 60 mg, Post-Drug",0 (0)
same,CPT Commission Errors,"[1]; SAD study, 60 mg, Pre-Drug",12.83 (4.07)
same,CPT Hit Response Time,"[1]; SAD study, 60 mg, Pre-Drug",393.27 (46.65) ms
same,CPT Omission Errors,"[1]; SAD study, 60 mg, Pre-Drug",1 (1.27)
same,CPT Perseverations,"[1]; SAD study, 60 mg, Pre-Drug",0.33 (0.52)
same,CPT Commission Errors,"[1]; SAD study, 120 mg, Post-Drug",15.33 (5.92)
same,CPT Hit Response Time,"[1]; SAD study, 120 mg, Post-Drug",356.2 (29.58) ms
same,CPT Omission Errors,"[1]; SAD study, 120 mg, Post-Drug",4.67 (5.28)
same,CPT Perseverations,"[1]; SAD study, 120 mg, Post-Drug",1.5 (1.98)
same,CPT Commission Errors,"[1]; SAD study, 120 mg, Pre-Drug",15.5 (6.66)
same,CPT Hit Response Time,"[1]; SAD study, 120 mg, Pre-Drug",361.23 (27.25) ms
same,CPT Omission Errors,"[1]; SAD study, 120 mg, Pre-Drug",0.83 (0.75)
same,CPT Perseverations,"[1]; SAD study, 120 mg, Pre-Drug",0 (0)
same,CPT Commission Errors,"[1]; SAD study, 240 mg, Post-Drug",12 (1.55)
same,CPT Hit Response Time,"[1]; SAD study, 240 mg, Post-Drug",372.94 (64.52) ms
same,CPT Omission Errors,"[1]; SAD study, 240 mg, Post-Drug",2.33 (2.58)
same,CPT Perseverations,"[1]; SAD study, 240 mg, Post-Drug",0.83 (1.6)
same,CPT Commission Errors,"[1]; SAD study, 240 mg, Pre-Drug",11.33 (3.62)
same,CPT Hit Response Time,"[1]; SAD study, 240 mg, Pre-Drug",372.21 (43.06) ms
same,CPT Omission Errors,"[1]; SAD study, 240 mg, Pre-Drug",1 (1.27)
same,CPT Perseverations,"[1]; SAD study, 240 mg, Pre-Drug",0.5 (1.23)
same,CPT Commission Errors,"[1]; SAD study, 400 mg, Post-Drug",9.5 (3.08)
same,CPT Hit Response Time,"[1]; SAD study, 400 mg, Post-Drug",365.85 (33.44) ms
same,CPT Omission Errors,"[1]; SAD study, 400 mg, Post-Drug",1.67 (1.97)
same,CPT Perseverations,"[1]; SAD study, 400 mg, Post-Drug",0.33 (0.82)
same,CPT Commission Errors,"[1]; SAD study, 400 mg, Pre-Drug",10.33 (2.81)
same,CPT Hit Response Time,"[1]; SAD study, 400 mg, Pre-Drug",374.41 (25.8) ms
same,CPT Omission Errors,"[1]; SAD study, 400 mg, Pre-Drug",0.67 (1.2)
same,CPT Perseverations,"[1]; SAD study, 400 mg, Pre-Drug",0.17 (0.41)
same,CPT Commission Errors,"[1]; SAD study, 600 mg, Post-Drug",17 (8.49)
same,CPT Hit Response Time,"[1]; SAD study, 600 mg, Post-Drug",356.18 (45.08) ms
same,CPT Omission Errors,"[1]; SAD study, 600 mg, Post-Drug",1.5 (2.35)
same,CPT Perseverations,"[1]; SAD study, 600 mg, Post-Drug",1.5 (3.21)
same,CPT Commission Errors,"[1]; SAD study, 600 mg, Pre-Drug",13 (5.66)
same,CPT Hit Response Time,"[1]; SAD study, 600 mg, Pre-Drug",387.39 (51.74) ms
same,CPT Omission Errors,"[1]; SAD study, 600 mg, Pre-Drug",1.33 (3.27)
same,CPT Perseverations,"[1]; SAD study, 600 mg, Pre-Drug",0.33 (0.82)
same,"CPT hit response time, dose by time interaction, effect size d","[1]; SAD study, p = 0.063, faster following higher doses",1.19
same,"CPT, effects of food or time","[1]; food effect study, 120 mg",no significant effects of food or time
same,vitals measurements over the first 48 h post-dose,[2]; SAD study,no significant dose-by-time interactions
same,vitals measurements over the first 48 h post-dose,[2]; food effect study,no significant dose-by-time interactions
same,ALT and AST levels,[3],moderate increase in ALT and AST levels reported by one participant
